# Test results reported in article PMC9124818 (Pharmacology Research & Perspectives, 2022).
# Like-named read-outs stand apart in the source and are kept apart here.
# Columns and labels:
# CYP2C19 = CYP2C19 (Homo sapiens, UniProt P33261); assay: Direct CYP450 inhibition in human liver microsomes (S-mephenytoin 4'-hydroxylation); conditions: for Inhibition (%): FFA up to 60 µM, nFFA up to 100 µM; for Basic model: R1: R1 = 1 + (Imax,u/Ki,u)
# Source text: A mixed‐gender pool of 200 individual human liver microsomal samples was used.
# This LIMS utilizes the Levenberg-Marquardt algorithm to perform nonlinear regression fitting of the data to the following 4-parameter sigmoidal-logistic IC50 equation:
# As percent of control values are utilized, the Min is set to 0 and the Max is set to 100 (or other values, as appropriate). […] Therefore, when an IC50 value falls outside the concentration range studied, the IC50 values are reported to be greater than the highest concentrations of test article evaluated.
# [1] = test system: cultured human hepatocytes; assay: Cytotoxicity: LDH release and microscopic evaluation; format: cell-based; conditions: for hepatocyte morphology: up to 40 μM FFA or 50 μM nFFA for 3 consecutive days; for LDH release: up to 40 μM FFA or 50 μM nFFA, all three hepatocyte cultures
# Experimental: Data were processed with KC4 Signature software (version 3.4, Rev 21, BioTek Instruments, Inc.) and graphed with Microsoft Excel 2003 (Microsoft Corp.). Percent LDH release was calculated based on the following equations: […]
# CYP450 enzymes = assay: Time- and metabolism-dependent CYP450 inhibition in human liver microsomes; format: in vitro ADME; conditions: compared to direct inhibition
# CYP2D6 = CYP2D6 (Homo sapiens, UniProt P10635); assay: Time- and metabolism-dependent inhibition, 30-min preincubation with or without NADPH (dextromethorphan O-demethylation); conditions: for IC50: human liver microsomes; for inhibition at 30 min: both, human, pooled human liver microsomes, pH 7.4, probe dextromethorphan (O-demethylation)
# Experimental: These preincubations allowed assessment of the NADPH‐dependence of any time‐dependent CYP450 inhibition. Following the 30‐min preincubation, the NADPH‐generating system and/or marker substrate was added, and incubations were continued as described previously to measure residual CYP450 enzyme activity.
# CYP1A2 mRNA = assay: CYP450 induction in cultured human hepatocytes, mRNA by qRT-PCR; format: cell-based; conditions: for Fold‐change method: Fold change: highest dose tested (40 µM fenfluramine, 50 µM norfenfluramine); for Fold‐change method: % of control: percent of positive control induction of mRNA
# Experimental: Each PCR was performed in triplicate.
# OATP1B1 = molecular target: T1, OATP1B1 (Homo sapiens, UniProt Q9Y6L6); assay: Transporter inhibition, uptake of [3H]-estradiol-17β-glucuronide in HEK293 cells; format: in vitro ADME
# T1 construct: host or cells: HEK293
# T1 sequence (Q9Y6L6 1-691): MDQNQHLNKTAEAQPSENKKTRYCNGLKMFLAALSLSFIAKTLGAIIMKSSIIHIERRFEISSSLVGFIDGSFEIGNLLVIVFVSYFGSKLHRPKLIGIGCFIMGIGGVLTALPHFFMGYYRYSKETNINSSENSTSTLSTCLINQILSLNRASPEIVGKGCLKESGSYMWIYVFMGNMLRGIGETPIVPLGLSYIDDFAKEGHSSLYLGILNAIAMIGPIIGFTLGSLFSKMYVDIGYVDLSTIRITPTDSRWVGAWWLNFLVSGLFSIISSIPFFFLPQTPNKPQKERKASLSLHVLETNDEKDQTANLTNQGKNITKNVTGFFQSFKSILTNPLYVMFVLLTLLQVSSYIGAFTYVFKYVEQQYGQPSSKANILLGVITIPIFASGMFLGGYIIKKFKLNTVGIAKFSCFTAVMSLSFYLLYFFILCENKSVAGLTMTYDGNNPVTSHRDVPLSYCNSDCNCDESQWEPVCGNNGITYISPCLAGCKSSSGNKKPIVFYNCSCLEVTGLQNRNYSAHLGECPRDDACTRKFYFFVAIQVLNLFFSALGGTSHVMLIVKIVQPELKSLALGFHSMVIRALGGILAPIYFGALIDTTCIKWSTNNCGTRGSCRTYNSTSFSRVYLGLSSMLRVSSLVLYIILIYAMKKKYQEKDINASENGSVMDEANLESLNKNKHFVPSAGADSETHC
# Experimental: (§1) The test compound (FFA or nFFA) or the positive control substrate ([…], respectively) was added to the donor chamber. […] Cells were then washed, lysed with scintillation cocktail, and analyzed for the probe substrate with a MicroBeta scintillation counter (PerkinElmer, Hopkinton, MA). Transcellular transporter assay conditions are described in Supplemental Table 1. Calculation of IC50 values was based on bidirectional permeability of probe substrate with and without the inhibitor in MDCKII cells expressing BCRP and in Caco‐2 cells expressing P‐gp, and transporter‐dependent uptake of probe substrate in HEK293 cells expressing all other transporters (Supplemental Table 1).
# (§2) The transporter-specific uptake of the probe substrate in cells was determined by subtracting the accumulation in the control cells from the accumulation in the transporter-expressing cells.
# OATP1B3 = molecular target: T2, OATP1B3 (Homo sapiens, UniProt Q9NPD5); assay: as above; format: in vitro ADME
# T2 construct: host or cells: HEK293
# T2 sequence (Q9NPD5 1-702): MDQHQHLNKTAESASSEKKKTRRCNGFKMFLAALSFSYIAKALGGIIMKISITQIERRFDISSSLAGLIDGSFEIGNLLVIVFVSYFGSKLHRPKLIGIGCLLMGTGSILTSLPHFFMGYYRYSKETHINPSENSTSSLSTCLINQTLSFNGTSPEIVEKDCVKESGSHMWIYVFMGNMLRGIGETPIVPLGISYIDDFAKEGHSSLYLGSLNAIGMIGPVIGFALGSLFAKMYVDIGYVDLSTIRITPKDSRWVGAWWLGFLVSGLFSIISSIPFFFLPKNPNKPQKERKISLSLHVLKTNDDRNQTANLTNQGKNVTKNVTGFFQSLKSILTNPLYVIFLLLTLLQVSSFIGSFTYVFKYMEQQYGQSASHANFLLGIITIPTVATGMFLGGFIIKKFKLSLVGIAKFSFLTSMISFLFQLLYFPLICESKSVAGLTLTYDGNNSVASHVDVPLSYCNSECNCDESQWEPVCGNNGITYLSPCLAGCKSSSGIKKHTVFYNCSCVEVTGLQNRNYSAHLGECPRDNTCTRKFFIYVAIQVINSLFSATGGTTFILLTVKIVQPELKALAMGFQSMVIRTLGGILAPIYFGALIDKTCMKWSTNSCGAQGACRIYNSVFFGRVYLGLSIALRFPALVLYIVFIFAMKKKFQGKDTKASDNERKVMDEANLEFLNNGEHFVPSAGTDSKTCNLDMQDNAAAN
# Experimental: as §1, §2
# [2] = direct inhibition, substrate S-mephenytoin
# [3] = all three hepatocyte cultures, FFA up to 40 μM, nFFA 50 μM
# [4] = HEK293, probe [3H]-estradiol-17β-glucuronide 50 nM, read-out: IC50
# CYP2D6, sequence (P10635 whole entry): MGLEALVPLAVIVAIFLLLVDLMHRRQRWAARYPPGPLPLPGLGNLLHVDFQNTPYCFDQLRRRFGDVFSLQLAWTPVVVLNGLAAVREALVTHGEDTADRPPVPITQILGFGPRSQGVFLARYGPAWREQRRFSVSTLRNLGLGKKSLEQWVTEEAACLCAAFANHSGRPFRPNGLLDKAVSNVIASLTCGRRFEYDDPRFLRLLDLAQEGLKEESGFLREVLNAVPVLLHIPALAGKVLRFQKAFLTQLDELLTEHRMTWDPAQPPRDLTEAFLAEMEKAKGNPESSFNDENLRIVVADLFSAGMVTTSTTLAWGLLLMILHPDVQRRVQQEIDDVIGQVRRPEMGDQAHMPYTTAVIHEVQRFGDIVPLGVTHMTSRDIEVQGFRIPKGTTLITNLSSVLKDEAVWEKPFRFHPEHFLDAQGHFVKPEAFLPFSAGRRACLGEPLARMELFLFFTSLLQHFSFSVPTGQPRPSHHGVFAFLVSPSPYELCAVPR
# CYP2C19, sequence (P33261 whole entry): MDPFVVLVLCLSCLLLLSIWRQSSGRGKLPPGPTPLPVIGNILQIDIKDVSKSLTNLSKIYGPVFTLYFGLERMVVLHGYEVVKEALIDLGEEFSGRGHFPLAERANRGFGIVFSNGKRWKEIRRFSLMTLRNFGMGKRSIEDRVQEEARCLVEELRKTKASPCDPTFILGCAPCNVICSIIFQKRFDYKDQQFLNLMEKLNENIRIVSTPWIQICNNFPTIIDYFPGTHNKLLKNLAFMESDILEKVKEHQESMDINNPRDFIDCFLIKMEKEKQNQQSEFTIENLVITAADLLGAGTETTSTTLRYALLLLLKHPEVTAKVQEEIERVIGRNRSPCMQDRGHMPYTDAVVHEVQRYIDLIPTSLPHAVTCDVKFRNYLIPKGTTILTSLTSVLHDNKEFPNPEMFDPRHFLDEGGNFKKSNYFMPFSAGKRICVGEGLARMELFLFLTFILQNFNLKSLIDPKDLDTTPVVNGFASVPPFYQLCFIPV
compound,measurement,setting,value
"CCNC(C)Cc1cccc(C(F)(F)F)c1 (racemic) [FFA, (RS)‐ethyl(α‐methyl‐3‐trifluoromethylphenethyl)amine, reference compound]",IC50,CYP2C19,> 60 µM
same,Inhibition (%),CYP2C19; [2],14%
same,Basic model: Potential for clinical inhibition,CYP2C19; substrate S-mephenytoin,No (Potential to inhibit if R1 ≥ 1.02)
same,Static mechanistic model: Potential for clinical inhibition,CYP2C19; substrate S-mephenytoin,No (Potential to inhibit if AUCR ≥ 1.25)
same,Basic model: R1,CYP2C19; substrate S-mephenytoin,1.01
same,hepatocyte morphology,[1],No morphological changes
same,LDH release,[1],≤ 8.5 % positive control
same,time- or metabolism-dependent inhibition of CYP450 enzyme activity,CYP450 enzymes,did not have any additional inhibitory effects
same,IC50,"CYP2D6; IC50 (+ NADPH), 30-min preincubation in the presence of NADPH",10 µM
same,IC50,"CYP2D6; IC50 (- NADPH), 30-min preincubation in the absence of NADPH",4.5 µM
same,inhibition at 30 min,"CYP2D6; % inhibition (+ NADPH), 30-min preincubation in the presence of NADPH",82%
same,inhibition at 30 min,"CYP2D6; % inhibition (- NADPH), 30-min preincubation in the absence of NADPH",89%
same,"% as effective as the positive control, omeprazole (CYP1A2 mRNA)",CYP1A2 mRNA; [3],< 20%
same,IC50,OATP1B1,> 300 µM
same,IC50,OATP1B3,> 300 µM
"CC(N)Cc1cccc(C(F)(F)F)c1.Cl (stereo not shown) [nFFA, [1‐(3‐trifluoromethyl)phenyl]propan‐2‐amine hydrochloride]",IC50,"CYP2C19; direct inhibition, human liver microsomes, substrate S-mephenytoin",> 100 µM
same,Inhibition (%),CYP2C19; [2],2.9%
same,Basic model: Potential for clinical inhibition,CYP2C19; substrate S-mephenytoin,No (Potential to inhibit if R1 ≥ 1.02)
same,Static mechanistic model: Potential for clinical inhibition,CYP2C19; substrate S-mephenytoin,No (Potential to inhibit if AUCR ≥ 1.25)
same,Basic model: R1,CYP2C19; substrate S-mephenytoin,1.00
same,hepatocyte morphology,[1],No morphological changes
same,LDH release,[1],≤ 13.8 % positive control
same,time- or metabolism-dependent inhibition of CYP450 enzyme activity,CYP450 enzymes,did not have any additional inhibitory effects
same,% inhibition (- NADPH),CYP2D6; 30-min preincubation in the absence of NADPH,82%
same,% inhibition (+ NADPH),CYP2D6; 30-min preincubation in the presence of NADPH,80%
same,IC50,"CYP2D6; read-out: IC50 (+ NADPH), 30-min preincubation in the presence of NADPH",17 ± 1 µM
same,IC50,"CYP2D6; read-out: IC50 (- NADPH), 30-min preincubation in the absence of NADPH",15 ± 1 µM
same,"% as effective as the positive control, omeprazole (CYP1A2 mRNA)",CYP1A2 mRNA; [3],< 20%
same,fold change in CYP1A2 mRNA levels,CYP1A2 mRNA; [3],< 2 fold
same,Fold‐change method: Potential to induce,CYP1A2 mRNA; hepatocytes HC7‐8,No
same,Fold‐change method: Fold change,CYP1A2 mRNA; hepatocytes HC7‐8,1.74 fold
same,Fold‐change method: % of control,CYP1A2 mRNA; hepatocytes HC7‐8,2.35%
same,Fold‐change method: Potential to induce,CYP1A2 mRNA; hepatocytes HC10‐8,No
same,Fold‐change method: Fold change,CYP1A2 mRNA; hepatocytes HC10‐8,1.92 fold
same,Fold‐change method: % of control,CYP1A2 mRNA; hepatocytes HC10‐8,1.79%
same,Fold‐change method: Potential to induce,CYP1A2 mRNA; hepatocytes HC10‐10,No
same,Fold‐change method: Fold change,CYP1A2 mRNA; hepatocytes HC10‐10,1.86 fold
same,Fold‐change method: % of control,CYP1A2 mRNA; hepatocytes HC10‐10,1.96%
same,IC50,OATP1B1; [4],> 50 µM
same,IC50,OATP1B3; [4],> 50 µM
